In publication PMC6562865, “Vitis vinifera L. Leaf Extract Inhibits In Vitro Mediators of Inflammation and Oxidative Stress Involved in Inflammatory-Based Skin Diseases” (Antioxidants, 2019):
Like-named read-outs stand apart in the source and are kept apart here.

Key:
IL-8 = IL-8 release in HaCaT cells (ELISA); format: cell-based, human; settings: for IL-8 release induced by TNF-α, pure compounds: 0.1–100 μM, up to the maximum concentration tested (100 μM)
Description: Cells were grown in 24-well plates for 48 h (30,000 cells per well) before the cytokine treatment. IL-8 was quantified using a Human Interleukin-8 ELISA Development Kit as previously described. Preliminary time-course experiments were performed to set the best conditions for further experiments. HaCaT were treated with TNF-α (10 ng/mL), LPS (5 μg/mL), or H2O2 (100 μM), for 3, 6, 24, and 30 h. The IL-8 secretion induced by TNF-α or LPS was tested after 6 h of treatment, while the 24-h time point was chosen for H2O2. Epigallocatechin-3-gallate (EGCG) (20 μM) was used as the reference inhibitor of IL-8 secretion.
(§1) HaCaT cells were grown in 24-well plates for 48 h (30,000 cells per well), washed with phosphate-buffered saline (PBS), and exposed to UVB (40 mJ/cm^2) light source (Triwood 31/36, W36, V230, Helios Italquartz, Milano, Italy) in a glass bath. Radiation time (about 50 s) was adjusted for each experimental day, measuring energy emission by the LP 471 UVB probe (Delta OHM, Padova, Italy). After radiation, serum free fresh culture medium was immediately added. For the evaluation of IL-8 release, cells were treated for additional 9 h, a time point selected in preliminary time-course experiments. For NF-κB (p65) translocation, HaCaT cells were treated for 1 h after UVB radiation. EGCG (20 μM) was used as reference inhibitor.

[1] = In vitro skin permeation study, Franz diffusion cell method; format: in vitro ADME, human; settings: for recovery: human
Text: VVWE was characterized by a validated HPLC-DAD method as previously described. Briefly, two different HPLC methods coupled with a Diode Array Detector (DAD) have been used, the first for anthocyanin detection at 520 nm by the use of a Synergi 4u MAX-RP 80 Å column (250 × 4.60 mm × 4 μm) (Phenomenex, Torrance, CA, USA) and the second for flavonols and caffeic acid derivative detection at 360 nm by Synergi 4u MAX-RP 80 Å column (250 × 2 mm × 4 μm) (Phenomenex, Torrance, CA, USA). The anthocyanins standards, hyperoside and kaempferol-3-O-glucoside, were from Extrasynthese (Genay, France); all the other standards and solvents were bought from Sigma-Aldrich (St. Louis, MO, USA).
The human epidermis membrane used for in vitro permeation studies was obtained from the abdominal skin of a single donor. The epidermis was prepared according to the heat separation method, as previously reported.
Ex vivo skin permeation study: the study was performed using the Franz diffusion cell method. The human epidermis was mounted carefully on the receiver compartment of the Franz’s cell with the stratum corneum side in contact with donor solution. The receiver compartment was filled with freshly prepared degassed HCl 0.1 M solution (receiver phase). VVWE (150 mg) solubilized in 0.1 M HCl:EtOH (50:50, v/v) was loaded in the donor compartment (0.5 mL). At predetermined intervals (1, 5, 7, 24, 32, 48 h), 0.2-mL samples were removed from the receiver compartment and immediately replaced with fresh receiver phase. Sink conditions were maintained throughout the experiment. The samples were assayed by HPLC analysis. Four parallel experiments were performed.

IL-8 promoter = IL-8 promoter activity, IL-8-LUC transient transfection luciferase assay in HaCaT cells; format: cell-based, human; settings: transfected HaCaT, 6 h, 20 μM
Description: (§2) HaCaT cells were plated in 24-well plates and transiently transfected with the plasmid NF-κB-LUC or native IL-8-LUC, both at 250 ng per well, using Lipofectamine® 2000, according to previous studies. Sixteen hours later, the cells were treated for 6 h with increasing concentrations of VVWE in the presence of the pro-inflammatory mediators (TNF-α at 10 ng/mL or LPS at 5 μg/mL). After six hours, cells were harvested and the luciferase assay was performed using the BriteliteTM Plus reagent (PerkinElmer Inc., Massachusetts, USA) according to the manufacturer’s instructions. Data were expressed considering 100% of the luciferase activity related to the cytokine-induced promoter activity.

NF-κB = test: NF-κB-driven transcription, NF-κB-LUC transient transfection luciferase assay in HaCaT cells; format: cell-based, human; settings: transfected HaCaT, 6 h, 20 μM
Description: as §2

NF-κB (p65) = NF-κB (p65) nuclear translocation in HaCaT cells; format: cell-based, human; settings: 20 μM
Description: For the evaluation of the NF-κB (p65) translocation, HaCaT were plated at the concentration of 3 × 10^6 cells/mL in 100-mm plates with fresh complete medium. After 48 h, cells were treated for 1 h with the inflammatory mediators (TNF-α at 10 ng/mL or LPS at 5 μg/mL) and the extract (10–50 μg/mL) under study, using FBS-free medium. Nuclear extracts were prepared using the Nuclear Extraction Kit from the Cayman Chemical Company (Ann Arbor, MI, USA) as previously described.
Data were expressed considering 100% of the absorbance related to the cytokine-induced NF-κB nuclear translocation. EGCG (20 μM) was used as the reference inhibitor of the NF-κB nuclear translocation. The results are the mean ± SD of three experiments in triplicate.
as §1

VEGF = VEGF release in HaCaT cells (ELISA); format: cell-based, human; settings: 20 μM
Description: Cells were grown in 24-well plates for 48 h (30,000 cells per well) before challenge with the pro-inflammatory mediator. VEGF was quantified by the Human VEGF ELISA Development Kit. Briefly, Corning 96-well EIA/RIA plates (Sigma-Aldrich, Milan, Italy) were coated with the antibody provided in the ELISA Kit (PeproTech Inc., London, UK) overnight at 4 °C. After blocking the reaction, 300 μL of samples were transferred into wells at room temperature for 2 h. The amount of VEGF in the samples was detected by spectroscopy (signal read: 450 nm, 0.1 s) as described above. The quantitative measurement of VEGF was done using an optimized standard curve supplied with the ELISA set (100–2000 pg/mL). […] EGCG (20 μM) was used as the reference inhibitor of VEGF secretion.

MMP-9 = MMP-9 release in HaCaT cells (ELISA); format: cell-based, human; settings: 20 μM
Description: MMP-9 secretion was performed on HaCaT cells treated with TNF-α (10 ng/mL) and (LPS 5 μg/mL) for 3, 6, 24, and 48 h. Cells were grown in 24-well plates (30,000 cell/well) for 48 h, before the treatment. Human MMP-9 ELISA Kit from RayBio® (Norcross GA, USA) was used to quantify MMP-9 secretion according to manufacturer’s instructions. 300 μL of samples in duplicate were transferred into a 96-well plate coated with anti-human MMP-9 and incubated overnight at 4 °C with gentle shaking. MMP-9 secreted was detected by the use of biotinylated and streptavidin–horseradish peroxidase (HRP) conjugate antibodies as previously described. The quantitative measurement of MMP-9 was done using an optimized standard curve supplied with the ELISA kit (8.23–6000 pg/mL). The MMP-9 secretion reached the maximum at 24 h for both TNF-α and LPS. VVWE was tested at 10–50 μg/mL in the presence of stimuli and between 2.5–200 μg/mL without the pro-inflammatory mediators.

[2] = human epidermis, Franz cell, 150 mg VVWE, four replicates, read-out: Permeated Amount (% Recovery) (converted)
[3] = human epidermis, Franz cell, 150 mg VVWE, four replicates, read-out: Retained Amount in the Epidermidis (% Recovery) (converted)
[4] = µg per g VVWE, human epidermis, Franz cell, 150 mg VVWE
[5] = µg per g VVWE, human epidermis, Franz cell, 150 mg VVWE, 48 h, receiver phase
[6] = human epidermis, Franz cell, 150 mg VVWE, four replicates

O=C(/C=C/c1ccc(O)c(O)c1)O[C@@H](C(=O)O)[C@@H](O)C(=O)O [Caftaric acid]
IL-8 release induced by TNF-α, pure compounds (IL-8): failed to reduce IL-8 release
recovery [1, 2]: 0.476%
recovery [1, 3]: 0.102%
Retained Amount in the Epidermidis ± SD [1, 4]: 10.20 ± 9.00 µg/g
Permeated Amount ± SD [1, 5]: 47.59 ± 27.64 µg/g
Permeated Amount ± SD ([1]; µg per g VVWE, human epidermis, Franz cell, 150 mg VVWE, 48 h, receiver phase, listed as caftaric acid): 47.59 µg/g
Retained Amount in the Epidermidis ± SD ([1]; µg per g VVWE, human epidermis, Franz cell, 150 mg VVWE, listed as caftaric acid): 10.20 µg/g

OC[C@H]1O[C@@H](Oc2cc3c(O)cc(O)cc3[o+]c2-c2ccc(O)c(O)c2)[C@H](O)[C@@H](O)[C@@H]1O [Cyanidin 3-O-glucoside]
Permeated Amount (% Recovery) [1, 6]: 0.071%
Retained Amount in the Epidermidis (% Recovery) [1, 6]: 0.013%
Retained Amount in the Epidermidis ± SD [1, 4]: 0.30 ± 0.60 µg/g
Permeated Amount ± SD [1, 5]: 1.63 ± 2.08 µg/g

OC[C@H]1O[C@@H](Oc2cc3c(O)cc(O)cc3[o+]c2-c2cc(O)c(O)c(O)c2)[C@H](O)[C@@H](O)[C@@H]1O [Delphinidin 3-O-glucoside]
Permeated Amount (% Recovery) [1, 6]: 0.050%
Retained Amount in the Epidermidis (% Recovery) [1, 6]: 0.004%
Retained Amount in the Epidermidis ± SD [1, 4]: 0.04 ± 0.08 µg/g
Permeated Amount ± SD [1, 5]: 0.48 ± 0.68 µg/g

O=c1c(O[C@@H]2O[C@H](CO)[C@H](O)[C@H](O)[C@H]2O)c(-c2ccc(O)c(O)c2)oc2cc(O)cc(O)c12 [Hyperoside]
recovery [1, 2]: 0.02%
recovery [1, 3]: 0.058%
Retained Amount in the Epidermidis ± SD [1, 4]: 1.34 ± 1.43 µg/g
Permeated Amount ± SD [1, 5]: 0.47 ± 0.68 µg/g

O=c1c(O[C@@H]2O[C@H](CO)[C@@H](O)[C@H](O)[C@H]2O)c(-c2ccc(O)cc2)oc2cc(O)cc(O)c12 [Kaempferol 3-O-glucoside]
Permeated Amount (% Recovery) [1, 6]: 0.055%
Retained Amount in the Epidermidis (% Recovery) [1, 6]: 0.094%
Retained Amount in the Epidermidis ± SD [1, 4]: 3.53 ± 3.90 µg/g
Permeated Amount ± SD [1, 5]: 2.09 ± 1.70 µg/g

COc1cc(-c2[o+]c3cc(O)cc(O)c3cc2O[C@@H]2O[C@H](CO)[C@@H](O)[C@H](O)[C@H]2O)cc(OC)c1O [Malvidin 3-O-glucoside]
Permeated Amount (% Recovery) [1, 6]: 0.072%
Retained Amount in the Epidermidis (% Recovery) [1, 6]: 0.023%
Retained Amount in the Epidermidis ± SD [1, 4]: 0.29 ± 0.58 µg/g
Permeated Amount ± SD [1, 5]: 0.92 ± 1.22 µg/g

COc1cc(-c2[o+]c3cc(O)cc(O)c3cc2O[C@@H]2O[C@H](CO)[C@@H](O)[C@H](O)[C@H]2O)ccc1O [Peonidin 3-O-glucoside]
Permeated Amount (% Recovery) [1, 6]: 0.114%
Retained Amount in the Epidermidis (% Recovery) [1, 6]: 0.030%
Retained Amount in the Epidermidis ± SD [1, 4]: 0.58 ± 1.17 µg/g
Permeated Amount ± SD [1, 5]: 2.17 ± 2.72 µg/g

COc1cc(-c2[o+]c3cc(O)cc(O)c3cc2O[C@@H]2O[C@H](CO)[C@@H](O)[C@H](O)[C@H]2O)cc(O)c1O [Petunidin 3-O-glucoside]
Permeated Amount (% Recovery) [1]: 0.058%
Permeated Amount ± SD [1]: 0.38 ± 0.53 µg/g

O=c1c(O[C@@H]2O[C@H](CO)[C@@H](O)[C@H](O)[C@H]2O)c(-c2ccc(O)c(O)c2)oc2cc(O)cc(O)c12 [Quercetin 3-O-glucoside]
IL-8 release induced by TNF-α, pure compounds (IL-8): failed to reduce IL-8 release
recovery [1, 2]: 0.04%
recovery [1, 3]: 0.063%
Retained Amount in the Epidermidis ± SD [1, 4]: 13.58 ± 15.88 µg/g
Permeated Amount ± SD [1, 5]: 8.74 ± 9.50 µg/g
Permeated Amount ± SD ([1]; µg per g VVWE, human epidermis, Franz cell, 150 mg VVWE, 48 h, receiver phase, listed as quercetin 3-O-glucoside): 8.74 µg/g
Retained Amount in the Epidermidis ± SD ([1]; µg per g VVWE, human epidermis, Franz cell, 150 mg VVWE, listed as quercetin 3-O-glucoside): 13.58 µg/g

O=C(O)[C@H]1O[C@@H](Oc2c(-c3ccc(O)c(O)c3)oc3cc(O)cc(O)c3c2=O)[C@H](O)[C@@H](O)[C@@H]1O [Quercetin 3-O-glucuronide]
IL-8 release induced by TNF-α, pure compounds (IL-8): failed to reduce IL-8 release
Permeated Amount (% Recovery) [1]: 0.177%

C[C@@H]1O[C@@H](OC[C@H]2O[C@@H](Oc3c(-c4ccc(O)c(O)c4)oc4cc(O)cc(O)c4c3=O)[C@H](O)[C@@H](O)[C@@H]2O)[C@H](O)[C@H](O)[C@H]1O [Rutin]
recovery [1, 2]: 0.023%
recovery [1, 3]: 0.061%
Retained Amount in the Epidermidis ± SD [1, 4]: 0.80 ± 0.91 µg/g
Permeated Amount ± SD [1, 5]: 0.30 ± 0.35 µg/g

Epigallocatechin-3-gallate [EGCG]
inhibition of LPS-induced IL-8 secretion (IL-8; LPS 5 μg/mL, 6 h, 20 μM): 84.9%
inhibition of TNF-α-induced IL-8 secretion (IL-8; TNF-α 10 ng/mL, 6 h, 20 μM): 62.1%
inhibition of UVB-induced IL-8 secretion (IL-8; UVB 40 mJ/cm^2, 9 h, 20 μM): 61.7%
inhibition of LPS-induced IL-8 promoter activity (IL-8 promoter; LPS 5 μg/mL): 33.3%
inhibition of TNF-α-induced IL-8 promoter activity (IL-8 promoter; TNF-α 10 ng/mL): 35.9%
inhibition of LPS-induced NF-κB-driven transcription (NF-κB; LPS 5 μg/mL): 29.9%
inhibition of TNF-α-induced NF-κB-driven transcription (NF-κB; TNF-α 10 ng/mL): 59.9%
inhibition of LPS-induced NF-κB nuclear translocation (NF-κB (p65); LPS 5 μg/mL, 1 h): 53.2%
inhibition of TNF-α-induced NF-κB nuclear translocation (NF-κB (p65); TNF-α 10 ng/mL, 1 h): 62.4%
inhibition of UVB-induced NF-κB nuclear translocation (NF-κB (p65); UVB 40 mJ/cm^2, 1 h): 39.1%
inhibition of H2O2-induced VEGF secretion (VEGF; H2O2 100 μM, 24 h): 100%
inhibition of LPS-induced VEGF secretion (VEGF; LPS 5 μg/mL, 30 h): 100%
inhibition of TNF-α-induced VEGF secretion (VEGF; TNF-α 10 ng/mL, 24 h): 78.7%
inhibition of LPS-induced MMP-9 secretion (MMP-9; LPS 5 μg/mL, 30 h): no inhibition
inhibition of TNF-α-induced MMP-9 secretion (MMP-9; TNF-α 10 ng/mL, 24 h): 38.0%
